Results on five compounds are retold here after US20240270821A1, “GIP/GLP1/GCG TRI-RECEPTOR AGONISTS AND USES THEREOF” (priority 2023, published 2024).

By EC50 is commonly meant the concentration at which the effect is half-maximal.

Read-outs that look alike come from different tables or passages of the source.

Type in all cases: cell-based
The target in experiment [1] is T1, hGIPR (Homo sapiens, UniProt P48546).
T1 sequence (P48546 22-466): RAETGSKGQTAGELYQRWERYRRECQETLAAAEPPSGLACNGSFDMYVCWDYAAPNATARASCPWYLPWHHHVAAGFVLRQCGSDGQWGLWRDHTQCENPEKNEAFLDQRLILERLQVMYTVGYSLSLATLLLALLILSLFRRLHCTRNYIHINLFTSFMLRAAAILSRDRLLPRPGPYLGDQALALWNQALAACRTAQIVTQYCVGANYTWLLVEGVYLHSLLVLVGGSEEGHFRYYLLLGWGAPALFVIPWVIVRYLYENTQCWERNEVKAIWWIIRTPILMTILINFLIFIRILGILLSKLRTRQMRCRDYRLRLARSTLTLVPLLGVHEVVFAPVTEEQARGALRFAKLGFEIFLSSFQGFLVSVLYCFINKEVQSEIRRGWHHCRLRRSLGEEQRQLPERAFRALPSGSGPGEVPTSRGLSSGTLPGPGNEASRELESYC
Kind of experiment: Functional cAMP activity in the presence of 1% HSA. Conditions: read-out: cAMP Rel EC50, hGIPR.

Experiment [2] concerns the target T2, hGLP-1R (Homo sapiens, UniProt P43220). Briefly: Functional cAMP activity in the presence of 1% HSA. Conditions: read-out: cAMP Rel EC50, hGLP-1R.
The target in the next experiment is human GcgR (Homo sapiens, UniProt P47871). Kind of experiment: Functional cAMP activity in the presence of 1% HSA. Conditions: read-out: cAMP Rel EC50, hGcgR.
human GcgR, sequence (P47871 26-477): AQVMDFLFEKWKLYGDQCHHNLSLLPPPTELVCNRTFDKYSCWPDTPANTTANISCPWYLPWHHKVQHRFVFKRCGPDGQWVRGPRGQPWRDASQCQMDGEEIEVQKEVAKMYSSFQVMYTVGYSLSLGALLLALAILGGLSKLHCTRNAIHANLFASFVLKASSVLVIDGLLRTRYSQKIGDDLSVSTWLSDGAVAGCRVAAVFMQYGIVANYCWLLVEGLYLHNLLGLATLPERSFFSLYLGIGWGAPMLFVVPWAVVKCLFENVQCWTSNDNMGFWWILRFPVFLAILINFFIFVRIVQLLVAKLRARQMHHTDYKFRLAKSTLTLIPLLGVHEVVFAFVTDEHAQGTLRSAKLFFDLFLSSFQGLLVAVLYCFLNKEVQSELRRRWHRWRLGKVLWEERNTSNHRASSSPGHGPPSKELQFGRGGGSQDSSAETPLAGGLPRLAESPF
In experiment [3] the target is T1, hGIPR. Briefly: Functional cAMP activation in the presence of 0.1% casein (no HSA). Conditions: read-out: Relative cAMP EC50, hGIPR.
For experiment [4], the target named is T2, hGLP-1R. The description is as above. Conditions: read-out: Relative cAMP EC50, hGLP-1R.
The next experiment deals with hGcgR (Homo sapiens, UniProt P47871). The experiment is described as above. Conditions: read-out: Relative cAMP EC50, hGcgR.
hGcgR, sequence (P47871 26-477): as above
Setting [5] is: in the presence of 0.1% casein (no HSA), geometric mean.
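Wherever Relative cAMP EC50, hGIPR is given: intracellular cAMP rise after 30 min at 37 °C read by HTRF against a standard curve, scaled between buffer alone (0%) and top control ligand concentration (100%), four-parameter fit.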
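Wherever Relative cAMP EC50, hGLP-1R is given: intracellular cAMP rise after 30 min at 37 °C read by HTRF, normalized between buffer only (0%) and maximal control ligand (100%), four-parameter variable-slope fit.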
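Wherever Relative cAMP EC50, hGcgR is given: intracellular cAMP rise after 30 min at 37 °C, read by HTRF against a cAMP standard curve, scaled from buffer only (0%) to maximal control ligand response (100%).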

T2 sequence (P43220 24-463): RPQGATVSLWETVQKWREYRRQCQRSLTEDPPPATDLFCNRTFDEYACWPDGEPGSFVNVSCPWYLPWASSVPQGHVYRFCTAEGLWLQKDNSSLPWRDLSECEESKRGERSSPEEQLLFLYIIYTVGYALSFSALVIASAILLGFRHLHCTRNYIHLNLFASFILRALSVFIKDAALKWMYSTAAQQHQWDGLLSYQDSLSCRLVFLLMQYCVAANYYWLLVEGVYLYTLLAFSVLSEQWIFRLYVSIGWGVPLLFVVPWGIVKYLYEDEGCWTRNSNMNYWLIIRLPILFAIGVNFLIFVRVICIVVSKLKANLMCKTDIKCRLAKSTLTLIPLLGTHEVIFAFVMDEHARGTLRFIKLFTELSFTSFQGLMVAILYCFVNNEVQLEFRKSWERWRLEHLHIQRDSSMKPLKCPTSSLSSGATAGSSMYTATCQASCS
Procedure for hGcgR: After a 30-minute incubation at 37° C., the resulting increase in intracellular cAMP is quantitatively determined using the CisBio CAMP Dynamic 2 HTRF Assay Kit (62AM4PEJ). Briefly, cAMP levels within the cell are detected by adding the cAMP-d2 conjugate in cell lysis buffer followed by the antibody anti-cAMP-Eu^3+-Cryptate, also in cell lysis buffer.
Intracellular cAMP levels are determined by extrapolation using a standard curve. Dose response curves of compounds are plotted as the percentage of stimulation normalized to minimum (buffer only) and maximum (maximum concentration of each control ligand) values and analyzed using a four parameter non-linear regression fit with a variable slope (Genedata Screener 13). EC50 is the concentration of compound causing half-maximal simulation in a dose response curve. Each relative EC50 value for the Geometric mean calculation is determined from a curve fitting.

Consider `CC[C@H](C)[C@H](NC(=O)[C@H](CC(C)C)NC(=O)[C@](C)(Cc1ccc(O)cc1)NC(=O)[C@@H](CCC(=O)O)NC(=O)[C@@H](NC(=O)[C@H](Cc1ccccc1)NC(=O)[C@H](CCC(=O)O)NC(=O)C(C)(C)NC(=O)[C@H](C)NC(=O)[C@H](C)NC(=O)[C@H](CCCCNC(=O)COCCOCCNC(=O)CC[C@H](NC(=O)CCCCCCCCCCCCCCCCC(=O)O)C(=O)O)NC(=O)[C@H](CCCN)NC(=O)[C@H](CC(=O)O)NC(=O)[C@H](CC(C)C)NC(=O)[C@](C)(CC(C)C)NC(=O)[C@@H](NC(=O)[C@](C)(CO)NC(=O)[C@H](Cc1ccncc1)NC(=O)[C@H](CC(=O)O)NC(=O)[C@H](CO)NC(=O)[C@@H](NC(=O)[C@](C)(Cc1ccccc1F)NC(=O)[C@@H](NC(=O)CNC(=O)[C@H](CCC(N)=O)NC(=O)C(C)(C)NC(=O)[C@@H](N)Cc1ccc(O)cc1)[C@@H](C)O)[C@@H](C)O)[C@@H](C)CC)[C@@H](C)CC)C(=O)N[C@@H](CCC(=O)O)C(=O)NCC(=O)NCC(=O)N1CCC[C@H]1C(=O)N[C@@H](CO)C(=O)N[C@@H](CO)C(=O)NCC(=O)N[C@@H](C)C(=O)N1CCC[C@H]1C(=O)N1CCC[C@H]1C(=O)N1CCC[C@H]1C(=O)N[C@@H](CO)C(=O)NCC(=O)N[C@H](C(=O)NCC(=O)N[C@H](CCC(=O)O)C(N)=O)[C@@H](C)O` [Example 723], for which the EC50 at hGIPR [1] turned out to be 1.02 nM; on hGLP-1R [2], 26.5 nM; on human GcgR, 179 nM; on hGIPR [3] it was 0.0118 nM; at hGLP-1R [4], 0.255 nM; at hGcgR, 1.82 nM.
As for `CC[C@H](C)[C@H](NC(=O)[C@H](Cc1ccccc1)NC(=O)[C@H](C)NC(=O)C(C)(C)NC(=O)[C@H](CCC(N)=O)NC(=O)[C@H](C)NC(=O)[C@H](CCCCNC(=O)COCCOCCNC(=O)CC[C@H](NC(=O)CCCCCCCCCCCCCCCCC(=O)O)C(=O)O)NC(=O)[C@H](CCCCN)NC(=O)[C@H](CC(=O)O)NC(=O)[C@H](CC(C)C)NC(=O)[C@](C)(CC(C)C)NC(=O)[C@H](CCC(N)=O)NC(=O)[C@H](CO)NC(=O)[C@H](Cc1ccncc1)NC(=O)[C@H](CC(=O)O)NC(=O)[C@H](CO)NC(=O)[C@@H](NC(=O)[C@H](Cc1ccccc1)NC(=O)[C@@H](NC(=O)CNC(=O)[C@H](CCC(N)=O)NC(=O)C(C)(C)NC(=O)[C@@H](N)Cc1ccc(O)cc1)[C@@H](C)O)[C@@H](C)O)C(=O)N[C@@H](CCC(=O)O)C(=O)N[C@@H](Cc1ccc(O)cc1)C(=O)N[C@@H](CC(C)C)C(=O)N[C@@H](CC(C)C)C(=O)N[C@@H](CCC(=O)O)C(=O)N[C@H](C)C(=O)NCC(=O)N1CCC[C@H]1C(=O)N[C@@H](CO)C(=O)N[C@@H](CO)C(=O)NCC(=O)N[C@@H](C)C(=O)N1CCC[C@H]1C(=O)N1CCC[C@H]1C(=O)N1CCC[C@H]1C(=O)N[C@@H](CO)C(=O)NCC(=O)N[C@H](C(N)=O)[C@@H](C)O` [Example 821], the EC50 on hGIPR [1] was 26.1 nM; on hGLP-1R [2] it was 362 nM; on human GcgR, 989 nM; at hGIPR [3] (setting [5]), 0.152 nM; at hGLP-1R [4] (setting [5]), 2.79 nM; at hGcgR (setting [5]) it was 6.74 nM.
Take `CC[C@H](C)[C@H](NC(=O)[C@H](CC(C)C)NC(=O)[C@H](Cc1ccc(O)cc1)NC(=O)[C@H](CCC(=O)O)NC(=O)[C@@H](NC(=O)[C@H](Cc1ccccc1)NC(=O)[C@H](C)NC(=O)[C@](C)(Cc1ccncc1)NC(=O)[C@H](CCC(N)=O)NC(=O)[C@H](C)NC(=O)[C@H](CCCCNC(=O)COCCOCCNC(=O)CC[C@H](NC(=O)CCCCCCCCCCCCCCCCC(=O)O)C(=O)O)NC(=O)[C@H](CCCCN)NC(=O)[C@H](CC(=O)O)NC(=O)[C@H](CC(C)C)NC(=O)[C@](C)(CC(C)C)NC(=O)[C@H](CCC(N)=O)NC(=O)[C@H](CO)NC(=O)[C@H](Cc1ccncc1)NC(=O)[C@H](CC(=O)O)NC(=O)[C@H](CO)NC(=O)[C@@H](NC(=O)[C@H](Cc1ccccc1)NC(=O)[C@@H](NC(=O)CNC(=O)[C@H](CCC(N)=O)NC(=O)C(C)(C)NC(=O)[C@@H](N)Cc1ccc(O)cc1)[C@@H](C)O)[C@@H](C)O)[C@@H](C)CC)C(=O)N[C@@H](C)C(=O)NCC(=O)NCC(=O)N1CCC[C@H]1C(=O)N[C@@H](CO)C(=O)N[C@@H](CO)C(=O)NCC(=O)N[C@@H](C)C(=O)N1CCC[C@H]1C(=O)N1CCC[C@H]1C(=O)N1CCC[C@H]1C(=O)N[C@@H](CO)C(=O)NCC(=O)N[C@@H](CO)C(N)=O` [Example 827]: the EC50 at hGIPR [1] is 19.5 nM; on hGLP-1R [2] it was 53.8 nM; on human GcgR, 424 nM; on hGIPR [3] (setting [5]), 0.12 nM; on hGLP-1R [4] (setting [5]), 0.593 nM; at hGcgR (setting [5]), 4.23 nM.
For `CC[C@H](C)[C@H](NC(=O)[C@H](CC(C)C)NC(=O)[C@H](Cc1ccc(O)cc1)NC(=O)[C@H](CCC(=O)O)NC(=O)[C@@H](NC(=O)[C@H](Cc1ccccc1)NC(=O)[C@H](C)NC(=O)[C@](C)(Cc1ccncc1)NC(=O)[C@H](CCC(N)=O)NC(=O)[C@H](C)NC(=O)[C@H](CCCCNC(=O)COCCOCCNC(=O)CC[C@H](NC(=O)CC[C@H](NC(=O)CCCCCCCCCCCCCCCCC(=O)O)C(=O)O)C(=O)O)NC(=O)[C@H](CCCCN)NC(=O)[C@H](CC(=O)O)NC(=O)[C@H](CC(C)C)NC(=O)[C@](C)(CC(C)C)NC(=O)[C@H](CCC(N)=O)NC(=O)[C@H](CO)NC(=O)[C@H](Cc1ccncc1)NC(=O)[C@H](CC(=O)O)NC(=O)[C@H](CO)NC(=O)[C@@H](NC(=O)[C@H](Cc1ccccc1)NC(=O)[C@@H](NC(=O)CNC(=O)[C@H](CCC(N)=O)NC(=O)C(C)(C)NC(=O)[C@@H](N)Cc1ccc(O)cc1)[C@@H](C)O)[C@@H](C)O)[C@@H](C)CC)C(=O)N[C@@H](C)C(=O)NCC(=O)NCC(=O)N1CCC[C@H]1C(=O)N[C@@H](CO)C(=O)N[C@@H](CO)C(=O)NCC(=O)N[C@@H](C)C(=O)N1CCC[C@H]1C(=O)N1CCC[C@H]1C(=O)N1CCC[C@H]1C(=O)N[C@@H](CO)C(=O)NCC(=O)N[C@@H](CO)C(N)=O` [Example 869], the EC50 on hGIPR [1] was determined as 14.1 nM; at hGLP-1R [2] it was 114 nM; on human GcgR, 571 nM; on hGIPR [3] (setting [5]), 0.142 nM; at hGLP-1R [4] (setting [5]), 2 nM; on hGcgR (setting [5]) it was 9.94 nM.
With `CC[C@H](C)[C@H](NC(=O)[C@H](CC(C)C)NC(=O)[C@H](Cc1ccc(O)cc1)NC(=O)[C@H](CCC(=O)O)NC(=O)[C@@H](NC(=O)[C@H](Cc1ccccc1)NC(=O)[C@H](C)NC(=O)[C@](C)(Cc1ccncc1)NC(=O)[C@H](CCC(N)=O)NC(=O)[C@H](C)NC(=O)[C@H](CCCCNC(=O)CC[C@H](NC(=O)CC[C@H](NC(=O)CCCCCCCCCCCCCCCCC(=O)O)C(=O)O)C(=O)O)NC(=O)[C@H](CCCCN)NC(=O)[C@H](CC(=O)O)NC(=O)[C@H](CC(C)C)NC(=O)[C@](C)(CC(C)C)NC(=O)[C@H](CCC(N)=O)NC(=O)[C@H](CO)NC(=O)[C@H](Cc1ccncc1)NC(=O)[C@H](CC(=O)O)NC(=O)[C@H](CO)NC(=O)[C@@H](NC(=O)[C@H](Cc1ccccc1)NC(=O)[C@@H](NC(=O)CNC(=O)[C@H](CCC(N)=O)NC(=O)C(C)(C)NC(=O)[C@@H](N)Cc1ccc(O)cc1)[C@@H](C)O)[C@@H](C)O)[C@@H](C)CC)C(=O)N[C@@H](C)C(=O)NCC(=O)NCC(=O)N1CCC[C@H]1C(=O)N[C@@H](CO)C(=O)N[C@@H](CO)C(=O)NCC(=O)N[C@@H](C)C(=O)N1CCC[C@H]1C(=O)N1CCC[C@H]1C(=O)N1CCC[C@H]1C(=O)N[C@@H](CO)C(=O)NCC(=O)N[C@@H](CO)C(N)=O` [Example 870], the EC50 at hGIPR [1] was determined as 7.29 nM; on hGLP-1R [2], 71.2 nM; on human GcgR it was 736 nM; at hGIPR [3] (setting [5]) it was 0.0698 nM; on hGLP-1R [4] (setting [5]) it was 0.962 nM; at hGcgR (setting [5]) it was 4.4 nM.
